Assay results published in patent publication US6541519B2, “Methods and compositions for treating lipoxygenase-mediated disease states” (Coastside Bio Resources, priority 2000, dated 2003).
Values after ≈ are worked out from the molar mass of the structure shown.

What was measured:
H1299 cells = assay: MTT cytotoxicity assay, H1299; format: cell-based; details: Homo sapiens, NCI-H1299
Experimental: (§1) The relative cytotoxic activity of 12-MTA against human tumor cells was measured by means of a MTT assay. Human cell lines, including H1299, PC3, K562, A549, DU145, and HL60 were used.

HL60 cells = assay: MTT cytotoxicity assay, HL60; format: cell-based; details: Homo sapiens, HL-60
Experimental: as §1

A549 cells = assay: MTT cytotoxicity assay, A549; format: cell-based; details: Homo sapiens
Experimental: as §1

PC3 cells [1] = assay: MTT cytotoxicity assay, PC3; format: cell-based; details: Homo sapiens, PC-3
Experimental: as §1

DU145 cells = assay: MTT cytotoxicity assay, DU145; format: cell-based; details: Homo sapiens, DU-145
Experimental: as §1

K562 cells = assay: MTT cytotoxicity assay, K562; format: cell-based; details: Homo sapiens
Experimental: as §1

[2] = test system: PC3 human prostate cancer cells; assay: Morphological changes by scanning electron microscopy; format: cell-based; details: 24.2 μg/ml in 0.1% DMSO, harvested 30', 1, 2, 4, 24 hours
Experimental: PC3 cells (5×10^5) were plated in 35 mm dishes. After 24 hours, cells were treated with 24.2 μg/ml of 12-MTA in 0.1% DMSO. The cells were harvested at 30′, 1, 2, 4 and 24 hours. Harvested cells were fixed with 2% paraformaldehyde plus 3% glutformaldehyde in 0.1% sodium cacodylate buffer, pH 7.3. Morphological changes were measured by scanning electron microscopy (SEM).

PC3 cells [3] = assay: DNA fragmentation analysis (propidium iodide staining and FACS); format: cell-based, human; details: 18.15 μg/ml
Experimental: To measure apoptosis directly, PC3 cells were treated with various concentrations of 12-MTA. Cell death by apoptosis was quantified by propidium iodide staining and FACS analysis. This technique measures cells with fragmented DNA, which appear as a population with hypodiploid DNA content (FIG. 2). 12-MTA induced concentration-dependent DNA fragmentation in PC3 cells.

caspase 3 in PC3 cells = assay: Caspase 3 activation and PARP cleavage; format: cell-based, human; details: 24.2 μg/ml, 24 and 48 hours
Experimental: Caspases are a family of aspartate-specific cysteine proteases that are required for apoptosis. The most familiar substrate of caspase is PARP, which is involved with regulation of chromatin structure during differentiation and DNA repair. The native PARP protein (Mr, 116,000) is cleaved by caspase 3 or caspase 7 to yield lower molecular weight fragments. To confirm that the induction of apoptosis by 12-MTA involves activation of caspases, we treated PC3 cells with 24.2 μg/ml of 12-MTA and measured PARP cleavage and caspase 3 activation at 24 and 48 hours.

5-lipoxygenase [4] = biological target: T1, 5-lipoxygenase (Rattus norvegicus, UniProt P12527); assay: Inhibition of 5-lipoxygenase activity (5-HETE and LTB4 production, LC/MS/MS); format: cell-based; details: RBL-1 cells, 5 minutes at 37° C., then A23187 and arachidonic acid
T1 construct: endogenous in cells; host or cells: RBL-1 (rat leukemia) cells
T1 sequence (P12527 1-673): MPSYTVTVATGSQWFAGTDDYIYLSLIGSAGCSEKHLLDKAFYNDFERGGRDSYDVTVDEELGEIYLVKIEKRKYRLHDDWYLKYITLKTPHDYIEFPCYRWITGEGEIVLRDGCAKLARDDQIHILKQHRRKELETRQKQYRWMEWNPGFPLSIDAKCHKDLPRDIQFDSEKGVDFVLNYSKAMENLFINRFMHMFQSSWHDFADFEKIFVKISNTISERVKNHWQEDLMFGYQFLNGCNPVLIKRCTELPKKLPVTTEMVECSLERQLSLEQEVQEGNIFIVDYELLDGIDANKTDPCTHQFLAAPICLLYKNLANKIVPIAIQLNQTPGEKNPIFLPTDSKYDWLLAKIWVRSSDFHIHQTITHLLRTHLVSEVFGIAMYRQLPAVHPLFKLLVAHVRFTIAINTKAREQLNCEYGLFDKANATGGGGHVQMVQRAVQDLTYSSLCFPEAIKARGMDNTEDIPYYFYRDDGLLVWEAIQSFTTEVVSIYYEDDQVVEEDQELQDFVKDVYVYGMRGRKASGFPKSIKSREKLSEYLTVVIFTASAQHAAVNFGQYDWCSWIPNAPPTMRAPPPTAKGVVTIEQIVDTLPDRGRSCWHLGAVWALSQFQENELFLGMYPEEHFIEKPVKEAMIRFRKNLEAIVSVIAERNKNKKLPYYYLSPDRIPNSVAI
Experimental: (§2) 12-MTA in rat leukemia (RBL-1) cells were examined. Cells were treated with 12-MTA (5 to 100 μg/ml) for 5 minutes at 37° C. followed by addition of A23187 (1 mM) and arachidonic acid (125 μM). Then the eicosanoids were extracted with hexane:ethyl acetate and analyzed by Multiple Reaction Monitoring in a tandem mass spectrometer (LC/MS/MS). Among seven eicosanoid metabolites, including PGE2, LTB4, 5-, 8-, 11-, 12-, and 15-HETEs, reduced production of 5-HETE and LTB4 in 12-MTA treated cells was observed. […] The inhibitory activity of 12-MTA on production of 5-HETE and LTB4 was concentration-dependent. This study further confirmed that 12-MTA is a 5-lipoxygenase inhibitor. 12-MTA, at 100 μg/mL, inhibited production of 12-HETE by 25% […].

12-lipoxygenase = assay: Inhibition of 12-HETE production in RBL-1 cells (LC/MS/MS); format: cell-based, rat; details: 100 μg/mL
Experimental: as §2

PPAR-γ [5] = assay: PPAR-γ expression by immunoblot, DU145; format: cell-based, human; details: DU145 cells, 24.2 μg/ml, serum-free media, 24 hours; preliminary data
Experimental: (§3) Peroxisome proliferator-activated receptors (PPAR) represent a family of steroid hormone receptors in a superfamily mainly involved with lipid metabolism. Recently, high levels of PPAR-γ were reportedly expressed in prostate cancer tumor and activation of PPAR-γ was associated with nonapoptotic cell death induced by some PPAR-γ ligands. […] We have examined the effects of 12-MTA on activation of PPAR-γ in DU145 and PC3 cells. Cells were treated with 24.2 μg/ml of 12-MTA in serum-free media. After 24 hours, cells were harvested and expression of PPAR-γ was detected by immunoblot with or without blocking peptide.

PPAR-γ [6] = assay: PPAR-γ expression by immunoblot, PC3; format: cell-based, human; details: PC3 cells, 24.2 μg/ml, serum-free media, 24 hours; preliminary data
Experimental: as §3

5-lipoxygenase [7] = biological target: T2, 5-lipoxygenase (Homo sapiens, UniProt P09917); assay: Activity based fractionation, 5-HETE inhibition (UV 235 nm); format: biochemical; details: preparative TLC spot at 1:100 dilution
T2 sequence (P09917 1-674): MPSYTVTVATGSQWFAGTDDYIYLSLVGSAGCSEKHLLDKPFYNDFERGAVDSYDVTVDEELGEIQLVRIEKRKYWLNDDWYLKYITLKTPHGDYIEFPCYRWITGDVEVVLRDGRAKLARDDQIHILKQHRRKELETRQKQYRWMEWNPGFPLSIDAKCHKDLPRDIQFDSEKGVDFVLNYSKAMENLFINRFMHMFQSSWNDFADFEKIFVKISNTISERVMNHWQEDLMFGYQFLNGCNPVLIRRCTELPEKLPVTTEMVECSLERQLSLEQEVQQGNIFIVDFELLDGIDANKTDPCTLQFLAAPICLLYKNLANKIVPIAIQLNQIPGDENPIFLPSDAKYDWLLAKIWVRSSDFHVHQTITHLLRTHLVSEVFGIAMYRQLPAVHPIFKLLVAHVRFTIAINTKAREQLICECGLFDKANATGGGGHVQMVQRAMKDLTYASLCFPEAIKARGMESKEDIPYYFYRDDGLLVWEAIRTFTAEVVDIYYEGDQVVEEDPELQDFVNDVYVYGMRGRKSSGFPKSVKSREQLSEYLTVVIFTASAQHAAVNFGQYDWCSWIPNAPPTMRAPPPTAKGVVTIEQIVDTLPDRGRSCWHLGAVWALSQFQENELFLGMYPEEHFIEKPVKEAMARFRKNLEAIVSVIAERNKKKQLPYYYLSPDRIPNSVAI
From the text: The method of isolation was by ‘activity based fractionation’ using 5- and 12-lipoxygenase inhibition as the guiding assay. Using chromatography, preparative HPLC and preparative TLC of the sea cucumber oil, and checking 5-HETE with detection with UV at 235 nm, one particular spot on the TLC inhibited 5-HETE by approximately 94% at a 1:100 dilution. (FIGS. 3 and 4) The effect of 12-MTA on 5-HETE inhibition was also concentration dependent. The identity of the particular inhibitory ‘spot’ from preparative TLC was later identified by GC/MS, MS and NMR analysis and was confirmed to be 12-methyltetradecanoic acid (12-MTA).

IC50 (5-lipoxygenase [4]): ~103 µM
inhibition of 5-HETE (5-lipoxygenase [7]): approximately 94%
SMILES: CCC(C)CCCCCCCCCCC(=O)O (stereo not drawn) [12-MTA, 12-methyltetradecanoic acid]
IC50 (H1299 cells): 18.1 µg/mL (≈ 74.9 µM)
IC50 (HL60 cells): 20.6 µg/mL (≈ 84.9 µM)
IC50 (A549 cells): 21.8 µg/mL (≈ 89.9 µM)
IC50 (PC3 cells [1]): 30.1 µg/mL (≈ 124 µM)
IC50 (DU145 cells): 30.2 µg/mL (≈ 125 µM)
IC50 (K562 cells): 33.1 µg/mL (≈ 137 µM)
Morphological (apoptotic) changes by SEM [2]: cells exhibited apoptotic changes after 1-hour of exposure
percent of apoptotic cells (fragmented DNA) (PC3 cells [3]): 75%
PARP cleavage (caspase 3 in PC3 cells): prominent PARP cleavage
caspase 3 activation (caspase 3 in PC3 cells): can activate caspase 3
inhibition of production of 12-HETE (12-lipoxygenase): 25%
expression of PPAR-γ (PPAR-γ [5]): only slightly increased
expression of PPAR-γ (PPAR-γ [6]): only slightly increased
